# “Also recorded” adds a separate entry of the source.
# Assays:
# tMEF p53+/+ cells [1] = assay: Apoptosis / viability in E1A/Ha-ras-transformed MEF (tMEF p53+/+); assay type: cell-based, mouse; conditions: for apoptosis in E1A/Ha-ras transformed cells (viability, DNA fragmentation, flow cytometry): 50 μM DMP, 20 mM OTC, 24-48 h; for effect on cell viability (trypan blue exclusion) / apoptosis (DNA analysis): p53+/+ tMEF; for effect on cell viability (trypan blue exclusion): 48 h, tocopherol acetate 200 μM, Trolox 200 μM, BHA 100 μM; for apoptosis (DNA analysis): chain-breaking antioxidants
# Protocol: Cell Lines. MEF primary mouse embryo fibroblast cells (passage <5) and E1A/Ha-ras-transformed MEF were as in Lowe (18). […] The (Rostein, J. B. et al., 1988, Mutation Research 202:421-427) 1 mouse embryo fibroblast cell line was as in Levine (Harney, D. M. et al., 1991, Genes Dev. 5:2375-2385). BALB/c 3T3 A31 cells were obtained from the American Type Culture Collection (Bethesda, Md.). 308 papilloma cells were maintained in 0.05 mM Ca2+ EMEM medium with 10% fetal bovine serum, and all other cells were grown in DMEM medium with 10% heat-inactivated fetal bovine serum. Cell culture confluence was maintained below 80%.
# (§1) Chemicals and Cell Treatments. All chemicals were obtained from Sigma, except for Trolox which was purchased from Aldrich. These compounds were freshly dissolved in medium and adjusted to neutral pH if necessary, or (for vitamin E acetate, Trolox, and BHA) first dissolved in ethanol and added to the medium. Cell viability was determined by trypan blue exclusion as a measure of cell death independent of any growth suppression by p53.
# (§2) Apoptosis Assays. For fixed cells, apoptosis-associated DNA strand breaks were visualized by fluorescent in situ end-labeling as previously described (Ziegler, A. et al., 1994, Nature 372:773-776). For isolated DNA, DNA fragmentation analysis was performed (Lowe, S. W. et al., 1993, Cell 74:957-967).
# (§3) For flow cytometry analysis, approximately 10^6 cells per sample were washed with ice-cold PBS and fixed in 95% ethanol. Cells were then resuspended in 1 mg/ml RNase (Sigma) for 30 min at 37° C. and stained with 0.05 mg/ml propidium iodide (Sigma) for 1 h on ice. Flow cytometric analysis was performed with a FACS Vantage flow cytometer (Becton-Dickinson). Cells were excited at 488 nm and the emission was detected through a 630/22 nm band pass filter. A minimum of 10,000 cells were analyzed for each sample. Cell cycle analysis was performed using the Modfit 5.2 software (Verity Software House). […] Cellular debris was gated out using the electronic threshold.
# tMEF p53+/+ cells [2] = assay: GSH and total thiols in tMEF p53+/+ cells (GSH-400 kit); assay type: cell-based, mouse; conditions: 20 μM BSO 1 h preincubation then 20 μM BSO + 20 mM NAC 5 h
# Protocol: FIG. 6. Analysis of GSH, total thiols, and viability in tMEF p53+/+ cells treated with BSO and/or NAC. Cells treated with both compounds were preincubated with medium containing 20 μM BSO for 1 h and then treated with medium containing 20 μM BSO and 20 mM NAC for 5 h (GSH and thiols) or for 24 h (viability).
# Measurement of GSH and Total Thiols. Cells (4×106) were harvested from each sample. The GSH-400 kit (R & D Systems) was used following the manufacturer's instructions.
# MEF p53+/+ cells = assay: Apoptosis / viability in normal primary MEF (MEF p53+/+); assay type: cell-based, mouse; conditions: for apoptosis in normal counterparts: normal MEF, 50 μM DMP, 20 mM OTC
# Text: (§4) Cell Lines. MEF primary mouse embryo fibroblast cells (passage <5) and E1A/Ha-ras-transformed MEF were as in Lowe (18). The 308 papilloma cell line, which has a mutant Ha-ras allele (Strickland, J. E. et al., 1988, Cancer Res. 48) and wild-type p53 (Liu, M. et al., 1995, Oncogene 10:1955-1960) were also utilized. The (Rostein, J. B. et al., 1988, Mutation Research 202:421-427) 1 mouse embryo fibroblast cell line was as in Levine (Harney, D. M. et al., 1991, Genes Dev. 5:2375-2385). BALB/c 3T3 A31 cells were obtained from the American Type Culture Collection (Bethesda, Md.). 308 papilloma cells were maintained in 0.05 mM Ca2+ EMEM medium with 10% fetal bovine serum, and all other cells were grown in DMEM medium with 10% heat-inactivated fetal bovine serum. Cell culture confluence was maintained below 80%.
# as §1, §2, §3
# [3] = tested on: p53-/- tMEF and MEF cells; assay: Apoptosis / viability in transformed and normal primary cells from p53-/- null mice; assay type: cell-based, mouse; conditions: for p53 requirement of apoptosis induction: p53-/- versus p53+/+ transformed MEF
# Text: as §4, §1, §2
# [4] = tested on: p53+/+ colorectal carcinoma cell line RKO; assay: Apoptosis in colorectal carcinoma cell line RKO; assay type: cell-based; conditions: human p53+/+ RKO cells
# Protocol: as §2
# 308 papilloma cells [5] = assay: Cell viability by trypan blue exclusion in 308 papilloma cells; assay type: cell-based, murine; conditions: NAC dose range
# Text: as §4, §1
# 308 papilloma cells [6] = assay: Apoptosis-associated DNA strand breaks, fluorescent in situ end-labeling, 308 cells; assay type: cell-based, murine; conditions: 20 mM NAC, 24 h
# Text: as §4, §2
# p53 protein [7] = assay: p53 protein level in 308 cells (Western blot); assay type: cell-based, murine; conditions: dose-dependent, within 3 to 8 hours
# Text: as §4
# (§5) Northern and Western Blot Analysis. Northern and Western blot analysis were performed as previously described (Liu, M. et al., 1995, Oncogene 10:1955-1960).
# p53 mRNA = p53 mRNA steady-state level in 308 cells (Northern blot); assay type: cell-based, murine; conditions: 20 mM NAC, 5 h
# Text: as §4, §5
# p53 protein [8] = assay: p53 protein synthesis rate in 308 cells (35S-methionine labeling); assay type: cell-based, murine; conditions: 20 mM NAC, 5 h post-treatment
# Protocol: Analysis of p53 Protein Synthesis. Cultures of 308 cells were treated in the absence or presence of 20 mM NAC. At 4.5 h post-treatment, cells were incubated with methionine-free medium containing 2% dialyzed and chelexed fetal bovine serum for 0.5 h. At 5 h post-treatment, biosynthetic labeling was initiated by adding 200 μCi of ^35S-methionine per ml of methionine-free medium. The labeling was terminated at 5, 10, or 15 min. Throughout the experiment, 20 mM NAC was included in the group of NAC-treated cells. Cells were then washed twice with 10 ml of ice-cold PBS, scraped, and pelleted by centrifugation at 1500 rpm at 4° C. for 5 min. The supernatant was removed, and the cell pellet was lysed in ice-cold cell lysis buffer (0.5% Triton X-100, 300 mM NaCl, 50 mM Tris-HCl, pH 7.4, 10 μg/ml leupeptin, 0.1 mM phenylmethylsulfonyl fluoride). Aliquots of cell lysate containing equal amounts of protein (30 μg) were subjected to immunoprecipitation analysis with anti-p53 antibody PAb122 (25) and Protein A-agarose (GIBCO-BRL). The immunoprecipitated proteins were resolved on a 10% SDS-PAGE gel. The levels of synthesized p53 protein were then determined by densitometric scanning using a Hewlett-Packard ScanJet 4P Scanner and the NIH image 1.59 analysis software.
# p53 = p53 induction in BALB/c 3T3 A31 fibroblast cell line; assay type: cell-based, murine; conditions: BALB/c 3T3 A31 cells
# Text: as §4, §5
# p53 protein [9] = assay: p53 induction in normal MEF p53+/+ cells (immunohistochemical staining); assay type: cell-based, mouse; conditions: 20 mM NAC, 5 h
# Protocol: FIGS. 2A-2C. p53-dependent apoptosis by NAC is selective for transformed cells. FIG. 2A: viability of normal (MEF) and transformed (tMEF) cells measured by trypan blue exclusion after treatment with NAC for 24 h. FIG. 2B: analysis of DNA fragmentation from tMEF cells exposed to NAC. FIG. 2C: immunohistochemical staining of p53 protein in p53+/+ MEF cells after 5 h exposure to 20 mM NAC.
# as §4
# DNA = conditions: literature references; cited from earlier work
SMILES,"apoptosis in E1A/Ha-ras transformed cells (viability, DNA fragmentation, flow cytometry) (tMEF p53+/+ cells [1]; transformed MEF)",apoptosis in normal counterparts (MEF p53+/+ cells),p53 requirement of apoptosis induction [3],apoptosis induction [4],effect on cell viability (trypan blue exclusion) (tMEF p53+/+ cells [1]),apoptosis (DNA analysis) (tMEF p53+/+ cells [1]),other results
"CCCCS(=N)(=O)CCC(N)C(=O)O [BSO, L-buthionine sulfoximine]",–,–,–,–,–,–,"effect on NAC-induced apoptosis (viability) (tMEF p53+/+ cells [1]; tMEF p53+/+, 20 μM BSO + 20 mM NAC 24 h): did not block NAC-induced apoptosis; also recorded: cannot block NAC-induced apoptosis; effect on induction of cellular GSH by NAC (tMEF p53+/+ cells [2]): completely blocks induction of cellular GSH by NAC; also recorded: inhibits cellular GSH elevation by NAC; effect on induction of total thiols by NAC (tMEF p53+/+ cells [2]): only partially blocking the induction of total thiols"
O=C(O)CCCC[C@@H]1CCSS1 (racemic) [lipoic acid],behaved similarly,behaved similarly,required p53,induced apoptosis,–,–,–
COc1ccc(O)c(C(C)(C)C)c1 [BHA],–,–,–,–,little effect on cell viability; also recorded: do not induce cell death,no apoptosis occurred,–
"OCC(S)CS (centres unmarked) [DMP, 2,3-dimercaptopropanol]",selectively induced apoptosis,not in their normal counterparts,required p53,induced apoptosis,–,–,doses at which active (apoptosis induction) (tMEF p53+/+ cells [1]; transformed MEF): ≥ 50 µM
"CC(=O)N[C@@H](CS)C(=O)O [NAC, N-acetylcysteine]",–,–,–,induced apoptosis,–,–,"cell death (cell viability by trypan blue exclusion) (308 papilloma cells [5]): dose-dependent cell death; in situ end-labeling of DNA strand-breaks (apoptosis) (308 papilloma cells [6]): showing in situ end-labeling of DNA strand-breaks; NAC-induced apoptosis (viability, DNA fragmentation) (tMEF p53+/+ cells [1]; tMEF p53+/+, NAC 24 h): sensitive to NAC-induced apoptosis; NAC-induced apoptosis (viability) (MEF p53+/+ cells; normal MEF p53+/+, NAC 24 h): strikingly resistant; NAC-induced apoptosis (viability) ([3]; transformed and normal primary cells from p53-/- null mice, NAC 24 h): deficient in apoptosis induced by NAC; increase of p53 protein levels (p53 protein [7]): 5- to 10 fold; steady-state level of p53 mRNA vs control (p53 mRNA): no major difference; elevation of biosynthetic rate of p53 protein (p53 protein [8]): ~5 fold; p53 induction (p53): induced p53; p53 induction (p53 protein [9]): p53 was induced; induction of DNA damage (DNA): does not induce DNA damage"
"CC(=O)Oc1c(C)c(C)c2c(c1C)CCC(C)(CCC[C@H](C)CCC[C@H](C)CCCC(C)C)O2 (some centres unmarked) [vitamin E acetate, tocopherol acetate]",–,–,–,–,little effect on cell viability,no apoptosis occurred; also recorded: did not induce p53-dependent apoptosis,effect on cell viability (trypan blue exclusion) (tMEF p53+/+ cells [1]; listed as tocopherol acetate): do not induce cell death
"O=C1N[C@H](C(=O)O)CS1 [OTC, L-2-oxo-4-thiazolidinecarboxylate]",selectively induced apoptosis,not in their normal counterparts,required p53,induced apoptosis,–,–,–
Cc1c(C)c2c(c(C)c1O)CCC(C)(C(=O)O)O2 (centres unmarked) [Trolox],–,–,–,–,little effect on cell viability; also recorded: do not induce cell death,no apoptosis occurred; also recorded: did not induce p53-dependent apoptosis,–

# Source: patent US20020198161A1, “THERAPEUTIC USES OF ANTIOXIDANTS” (priority 1997, published 2002)
